{"source": "patent US20240148819A1", "about": "“COMPOUNDS FOR USE IN THE TREATMENT OF SINUSITIS, PNEUMONIA OR OTITIS” (PHARMA HOLDINGS AS, priority 2021, published 2024)", "key": {"Candida tropicalis": {"tested_on": "Candida tropicalis", "conditions": "Candida tropicalis - ATCC750 - reference strain", "method": "(§1) Bacterial and fungal isolates used in this study were from various sources worldwide stored at GR Micro Ltd. and maintained, with minimal sub-culture, deep frozen at −70° C. as a dense suspension in a high protein matrix of undiluted horse serum.\n(§2) Minimum inhibitory concentration (MIC) of LTX-109 was determined using the following microbroth dilution methods for antimicrobial susceptibility testing published by the Clinical and Laboratory Standards Institute (CLSI, formerly NCCLS): • M7-A6 Vol. 23 No. 2 Jan. 2003 Methods for Dilution Antimicrobial Susceptibility Tests for Bacteria that Grow Aerobically; Approved Standard-Sixth Edition. National Committee for Clinical Laboratory Standards. • M100-S15 Vol. 25 No 1. January 2005 Performance Standards for Antimicrobial Susceptibility Testing; Fifteenth Informational Supplement. Clinical and Laboratory Standards Institute • M11-A6 Vol. 24 No. 2 Methods for Antimicrobial Susceptibility Testing of Anaerobic Bacteria; Approved Standard-Sixth Edition. National Committee for Clinical Laboratory Standards. • M27-A2 Vol. 22 No. 15 Reference Method for Broth Dilution Antifungal Susceptibility Testing of Yeasts; Approved Standard-Second Edition. National Committee for Clinical Laboratory Standards. • M38-A Vol. 22 No. 16 Reference Method for Broth Dilution Antifungal Susceptibility Testing of Filamentous Fungi; Approved Standard. National Committee for Clinical Laboratory Standards.\n(§3) MIC estimations were performed using wet plates, containing the LTX-109, prepared at GR Micro Ltd.\n(§4) Yeast and filamentous fungal MIC were performed in MOPS buffered RPMI 1640 medium (MOPS buffer obtained from Sigma Aldrich Ltd., RPMI 1640 obtained from Invitrogen Ltd, Paisley, Scotland). The yeast inocula were in the range 7.5×10^2-4×10^3 CFU/mL and the filamentous fungi approximately 8×10^3-1×10^5 CFU/mL.\n(§5) Following normal practice all the plates containing Mueller-Hinton broth were prepared in advance, frozen at −70° C. on the day of preparation and defrosted on the day of use. Fungal, Haemophilus and anaerobic MIC determinations were all performed in plates prepared on the same day."}, "Aspergillus niger": {"tested_on": "Aspergillus niger", "conditions": "Aspergillus niger - G. R. Micro collection", "method": "as §1, §2, §3, §4, §5"}, "Candida krusei": {"tested_on": "Candida krusei", "conditions": "Candida krusei - ATCC6258 - reference strain", "method": "as §1, §2, §3, §4, §5"}, "Candida albicans": {"tested_on": "Candida albicans", "method": "as §1, §2, §3, §4, §5"}, "Candida parapsilosis": {"tested_on": "Candida parapsilosis", "conditions": "Candida parapsilosis - ATCC90018 - reference strain", "method": "as §1, §2, §3, §4, §5"}, "Mycoplasma pneumoniae": {"tested_on": "Mycoplasma pneumoniae", "conditions": "both of the library strains of Mycoplasma pneumoniae", "method": "Two library strains of Mycoplasma pneumoniae were used. These strains were stored at GR Micro Ltd. and maintained, with minimal sub-culture, deep frozen at −70° C. as a dense suspension in a high protein matrix of undiluted horse serum.\nMIC determination was carried out using a broth microdilution method in Mycoplasma Broth Base (Oxoid Ltd, Hampshire, UK), prepared according to the manufacturer's instructions."}, "[1]": {"tested_on": "Influenza A strain A/WSN/33 (H1N1)", "assay_type": "cell-based, Influenza A virus"}, "Streptococcus pneumoniae": {"tested_on": "Streptococcus pneumoniae", "method": "as §1, §2, §3\n(§6) Cation-adjusted Mueller-Hinton broth (Oxoid Ltd., Basingstoke, UK and Trek Diagnostic Systems Ltd., East Grinstead, UK) (supplemented with 5% laked horse blood for Streptococcus spp.) was used for aerobic bacteria, with an initial inoculum of approximately 10^5 colony-forming units (CFU)/mL.\nas §5"}, "Moraxella catarrhalis": {"tested_on": "Moraxella catarrhalis", "method": "as §1, §2, §3, §6, §5"}, "Streptococcus pyogenes": {"tested_on": "Streptococcus pyogenes", "conditions": "Streptococcus pyogenes - macrolide (MLS) resistant clinical isolate", "method": "as §1, §2, §3, §6, §5"}, "HeLaM cells": {"tested_on": "HeLaM cells", "conditions": "1% LTX-7 (w/v) or 0.25% SDS in PBS, contact time 1 h, after filtration, no virus", "description": "(§7) A parallel test where the same procedure was carried out in the absence of virus was included to determine any residual cytotoxic effect of LTX-7 on the assay cells."}, "MDCK-II cells": {"tested_on": "MDCK-II cells", "conditions": "1% LTX-7 (w/v) or 0.2% Triton X-100 in PBS, contact time 1 h, after filtration, no virus", "description": "as §7"}, "[2]": {"tested_on": "Rhinovirus (HRV-A60), Strain: 2268-CV37", "test": "TCID50 assay after 1 h incubation of virus with LTX-7 (Example 10)", "assay_type": "cell-based", "conditions": "1% LTX-7 or 0.25% SDS; for % Reduction: Rhinovirus infectivity; for % Reduction / Log decrease: compared to PBS control; for Log decrease: Rhinovirus"}, "[3]": {"tested_on": "SARS-CoV-2 isolate England/02/2020", "assay_type": "cell-based"}, "Vero cells": {"tested_on": "Vero cells", "test": "Parallel test without virus for residual cytotoxicity (Example 8)", "conditions": "1% LTX-12 (w/v) or 0.2% Triton in PBS, contact time 1 h, after filtration, no virus"}, "HeLa cells [4]": {"tested_on": "HeLa cells", "test": "Parallel test without virus for residual cytotoxicity (Example 7)", "assay_type": "cell-based, human", "conditions": "3% LTX-109 (w/v) or 0.25% SDS, after dilution (50 μl in 5 ml), no virus", "description": "(§8) A parallel test where the same procedure was carried out in the absence of virus was included to determine any residual cytotoxic effect of the formulation on the assay cells."}, "Rhinovirus 60, 2268-CV37 [5]": {"tested_on": "Rhinovirus 60, 2268-CV37", "test": "TCID50 assay after 1 h incubation of virus with 1% LTX-109 (Example 6)", "assay_type": "cell-based"}, "HeLa cells [6]": {"tested_on": "HeLa cells", "conditions": "1% LTX-109 (w/v) or 0.25% SDS, after filtration, no virus, dilution showing cytotoxicity", "description": "as §8"}, "Rhinovirus 60, 2268-CV37 [7]": {"tested_on": "Rhinovirus 60, 2268-CV37", "test": "TCID50 assay after 1 h incubation of virus with 3% LTX-109, stopped by dilution (Example 7)", "assay_type": "cell-based"}}, "note": "Like-named read-outs stand apart in the source and are kept apart here."}
{"smiles": "N=C(N)NCCCC(N)C(=O)NC(Cc1ccc(-c2ccc3ccccc3c2)cc1)C(=O)NC(CCCNC(=N)N)C(=O)NCCc1ccccc1", "note": "(stereo not drawn) [LTX-7, Arg-Phe(4-(2-Naphthyl))-Arg-NH—CH2—CH2-Ph]", "values": [{"measurement": "MIC", "setting": "Candida tropicalis", "result": 2, "unit": "µg/mL"}, {"measurement": "MIC", "setting": "Aspergillus niger", "result": 4, "unit": "µg/mL"}, {"measurement": "MIC", "setting": "Candida krusei", "result": 4, "unit": "µg/mL"}, {"measurement": "MIC", "setting": "Candida albicans; Candida albicans - ATCC24433 - reference strain", "result": 2, "unit": "µg/mL"}, {"measurement": "MIC", "setting": "Candida albicans; Candida albicans - ATCC90028 - reference strain", "result": 2, "unit": "µg/mL"}, {"measurement": "MIC", "setting": "Candida parapsilosis", "result": 4, "unit": "µg/mL"}, {"measurement": "MIC", "setting": "Mycoplasma pneumoniae", "result": 32, "unit": "µg/mL"}, {"measurement": "% Reduction", "setting": "[1]", "result": 99.9988, "unit": "%"}, {"measurement": "MIC", "setting": "Streptococcus pneumoniae; Streptococcus pneumoniae - penicillin intermediate clinical isolate", "result": 32, "unit": "µg/mL"}, {"measurement": "MIC", "setting": "Streptococcus pneumoniae; Streptococcus pneumoniae - penicillin resistant clinical isolate", "result": 32, "unit": "µg/mL"}, {"measurement": "MIC", "setting": "Moraxella catarrhalis; Moraxella catarrhalis - reduced fluoroquinolone susceptibility clinical isolate", "result": 8, "unit": "µg/mL"}, {"measurement": "MIC", "setting": "Moraxella catarrhalis; Moraxella catarrhalis - β-lactamase positive clinical isolate", "result": 4, "unit": "µg/mL"}, {"measurement": "MIC", "setting": "Streptococcus pyogenes", "result": 32, "unit": "µg/mL"}, {"measurement": "Cytotoxicity", "setting": "HeLaM cells", "result": "Neat"}, {"measurement": "Cytotoxicity", "setting": "MDCK-II cells", "result": "neat"}, {"measurement": "% Reduction", "setting": "[2]", "result": 95.791, "unit": "%"}, {"measurement": "Log decrease", "setting": "[2]", "result": 1.33, "unit": "log"}]}
{"smiles": "CC(C)(C)c1cc(C(C)(C)C)c2[nH]c(C(C)(C)C)c(CC(NC(=O)C(N)CCCCN)C(=O)NC(CCCCN)C(=O)NCCc3ccccc3)c2c1", "note": "(stereo not drawn) [LTX-12, Lys-Tbt-Lys-NH—CH2—CH2-Ph]", "values": [{"measurement": "% Reduction", "setting": "[3]", "result": 99.977, "unit": "%"}, {"measurement": "Cytotoxicity", "setting": "Vero cells", "result": "No cytotoxicity"}]}
{"smiles": "CCCCCCCCCCCCOS(=O)(=O)[O-].[Na+]", "note": "[SDS, Sodium dodecyl sulphate]", "values": [{"measurement": "Cytotoxicity", "setting": "HeLa cells [4]", "result": "Neat"}, {"measurement": "TCID50/ml ± SEM", "setting": "Rhinovirus 60, 2268-CV37 [5]; Rhinovirus titre recovered after 1 hour with 1% LTX-109 (w/v) or 0.25% SDS, filtration, HeLa cells, 7 days", "result": "1.00E+02", "unit": "TCID50/ml"}, {"measurement": "Log decrease", "setting": "Rhinovirus 60, 2268-CV37 [5]; Rhinovirus, 1% LTX-109 or 0.25% SDS, 1 hour, compared to PBS control", "result": 3.6, "unit": "log"}, {"measurement": "Percentage", "setting": "Rhinovirus 60, 2268-CV37 [5]; decrease in Rhinovirus infectivity, 1% LTX-109 or 0.25% SDS, 1 hour, compared to PBS control", "result": 99.98, "unit": "%"}, {"measurement": "Log", "setting": "Rhinovirus 60, 2268-CV37 [5]; log of Rhinovirus titre after 1 hour with 1% LTX-109 or 0.25% SDS", "result": 2.0}, {"measurement": "Cytotoxicity", "setting": "HeLa cells [6]", "result": "Neat"}, {"measurement": "Cytotoxicity", "setting": "HeLaM cells", "result": "Neat"}, {"measurement": "TCID50/ml ± SEM", "setting": "Rhinovirus 60, 2268-CV37 [7]; Rhinovirus titre recovered after 1 hour with 3% LTX-109 (w/v) or 0.25% SDS, dilution, no filter, HeLa cells, 7 days", "result": "1.58E+01", "unit": "TCID50/ml"}, {"measurement": "Log decrease", "setting": "Rhinovirus 60, 2268-CV37 [7]; Rhinovirus, 3% LTX-109 or 0.25% SDS, 1 hour, compared to PBS control", "result": 3.0, "unit": "log"}, {"measurement": "Percentage", "setting": "Rhinovirus 60, 2268-CV37 [7]; decrease in Rhinovirus infectivity, 3% LTX-109 or 0.25% SDS, 1 hour, compared to PBS control", "result": 99.91, "unit": "%"}, {"measurement": "Log", "setting": "Rhinovirus 60, 2268-CV37 [7]; log of Rhinovirus titre after 1 hour with 3% LTX-109 or 0.25% SDS", "result": 1.2}, {"measurement": "% Reduction", "setting": "[2]", "result": 99.983, "unit": "%"}, {"measurement": "Log decrease", "setting": "[2]", "result": 3.67, "unit": "log"}, {"measurement": "Rounded %", "setting": "[2]; rounded % reduction of Rhinovirus infectivity", "result": 99.9, "unit": "%"}]}
